The target in one experiment is βarr2 (Rattus norvegicus, UniProt P29067). Put plainly: Negative-stain electron microscopy, 2D class averages of βarr2. Particulars: control βarr 97% monomeric. More on the design: final βarr2 (truncated βarr2 at 394) concentration of ˜1 mg/mL; made in house. As to the method:
To prepare for EM visualization of the architecture and structural organization of βarr2-Cmpd30 complexes, purified βarr2 (394) was diluted to 0.5 μM and incubated with 5 μM Cmpd-30 or vehicle (DMSO) in HN buffer (20 mM HEPES pH 7.4 and 150 mM NaCl) for 7 min at room temperature followed by dilution 10× into HN buffer containing 1 μM Cmpd-30, before negative staining. The positive control, βarr2 bound to IP6 sample was prepared similarly (5 μM and 250 μM, respectively) and was diluted 100× into HN buffer containing 10 μM IP6. Grids were prepared using conventional negative-staining protocols as described previously (Peisley, A. & Skiniotis, G. 2D Projection Analysis of GPCR Complexes by Negative Stain Electron Microscopy. Methods Mol Biol 1335, 29-38, doi:10.1007/978-1-4939-2914-6_3 (2015). Briefly, 3 μL of samples were applied onto a glow-discharged EM carbon-coated copper grid, adsorbed on the grid surface, blotted, stained, and air dried before imaging. EM grids were examined with a FEI Tecnai G2 Twin electron microscope and operated at an acceleration voltage of 120 kV. Images were recorded with an Eagle 2K CCD camera at a magnification of ×65,200 and a defocus value of ˜1.5 μm. Two-dimensional EM reference-free alignment and classification of particle projections were performed with the iterative stable alignment and clustering procedure (ISAC)(Yang, Z., et al., Iterative stable alignment and clustering of 2D transmission electron microscope images. Structure 20, 237-247, doi:10.1016/j.str.2011.12.007 (2012)). EM single particles were both automatically and manually selected using Boxer (part of the EMAN 2.1 software suite)(Tang, G. et EMAN2: an extensible image processing suite for electron microscopy. J Struct Biol 157, 38-46, doi:10.1016/j.jsb.2006.05.009 (2007)). A total of ˜250,000 0° particles projections were picked representing all the three βarr2 samples (with vehicle, Cmpd-30 or IP6) and windowed into 96×96-pixel images (with the RELION 2.1-beta-1 software package) and subjected to ISAC. […]

Experiment [1] concerns the target T1, βarr2 recruitment to agonist-activated β2V2R (Homo sapiens, UniProt P32121).
T1 construct: host or cells: U2OS
Put plainly: DiscoveRx PathHunter β-arrestin recruitment assay in U2OS cells. Format: cell-based. Conditions: series of compound concentrations, 30 min pretreatment, isoproterenol dose-response. As to the method: β-arrestin recruitment to the agonist-activated receptor (02V2R) was measured using the DiscoveRx PathHunter β-arrestin assay (Ahn, S. et al. Allosteric “beta-blocker” isolated from a DNA-encoded small molecule library. Proc Natl Acad Sci U SA 114, 1708-1713, doi:10.1073/pnas.1620645114 (2017)). […] Agonist-stimulated recruitment of βarr2 to the receptor results in the formation of functionally active β-gal enzyme. Addition of substrate generates a chemiluminescence signal directly correlated to the extent of recruitment. U2OS cells co-expressing β2V2R and βarr2 were plated in 96-well clear-bottomed plates at a density of 25,000 cells per well (80 μL per well), 24 hours prior to compound treatment. On the day of experiment, cells were first treated with compound or vehicle for 30 min, followed by agonist (Iso) stimulation for 60 min at 37° C. Cells were then treated with PathHunter™ detection reagents for 90 min at 37° C., and luminescence signals were measured using a CLARIOstar microplate reader (BMG Labtech Inc., Cary, N.C.).
For orientation: Activated receptors often draw arrestin, which recruitment assays turn into a signal.

T1 sequence (P32121 whole entry): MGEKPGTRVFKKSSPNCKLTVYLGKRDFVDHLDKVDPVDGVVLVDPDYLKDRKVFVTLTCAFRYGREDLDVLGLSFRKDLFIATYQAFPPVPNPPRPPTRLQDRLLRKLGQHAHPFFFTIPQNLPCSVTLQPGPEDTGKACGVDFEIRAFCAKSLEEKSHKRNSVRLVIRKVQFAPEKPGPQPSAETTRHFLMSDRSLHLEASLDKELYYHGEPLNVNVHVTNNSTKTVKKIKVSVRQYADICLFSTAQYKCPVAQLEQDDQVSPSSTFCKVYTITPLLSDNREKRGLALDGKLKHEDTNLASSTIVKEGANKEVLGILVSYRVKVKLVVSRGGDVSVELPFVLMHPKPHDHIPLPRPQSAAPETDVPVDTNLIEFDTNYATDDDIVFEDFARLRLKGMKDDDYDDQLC
Sequence of βarr2 (P29067 1-394): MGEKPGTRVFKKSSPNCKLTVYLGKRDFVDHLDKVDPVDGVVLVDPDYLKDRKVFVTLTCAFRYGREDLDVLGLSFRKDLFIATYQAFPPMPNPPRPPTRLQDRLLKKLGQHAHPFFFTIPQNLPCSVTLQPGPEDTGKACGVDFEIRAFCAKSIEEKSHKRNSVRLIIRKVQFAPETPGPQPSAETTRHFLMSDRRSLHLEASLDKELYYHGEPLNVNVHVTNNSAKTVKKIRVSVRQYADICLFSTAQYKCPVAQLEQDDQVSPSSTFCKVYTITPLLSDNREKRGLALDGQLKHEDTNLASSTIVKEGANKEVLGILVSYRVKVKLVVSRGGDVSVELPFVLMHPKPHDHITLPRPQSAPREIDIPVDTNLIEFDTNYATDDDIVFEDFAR

Consider `O=P(O)(O)OC1C(OP(=O)(O)O)C(OP(=O)(O)O)C(OP(=O)(O)O)C(OP(=O)(O)O)C1OP(=O)(O)O` (centres unmarked) [IP6, inositol hexakisphosphate, reference compound], for which, on βarr2, the “class averages represented as homo-oligomers (dimers/trimers)” value is 100%. As to `COc1cc(Cc2nccc3cc(OC)c(OC)cc23)c(C(C)=O)cc1OC` [C29, 1-[2-[(6,7-dimethoxyisoquinolin-1-yl)methyl]-4,5-dimethoxyphenyl]ethanone], the “maximal agonist induced βarr recruitment response” value in experiment [1] is listed as “significantly diminished”.

Source of the values: US20220315574A1, “Beta-Arrestin-Modulating Compounds and Methods of Using Same” (Duke University, priority 2019, published 2022).
